Test systems include SR leukemia; OVCAR-5 ovarian; HOP-92 NSCLC; A549 NSCLC; MOLT-4 leukemia; OVCAR-4 ovarian; COLO 205 colon; HCT-15 colon.
What all share (test): NCI tumour cell line growth inhibition, 48 h

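In this assay, cells in 96-well plates receive the compound at five concentrations for 48 hours. Endpoints are linearly interpolated between the surrounding concentrations. GI50 = concentration required for 50% inhibition of growth. TGI denotes the concentration required for complete inhibition of growth.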

In PubChem BioAssay (NCI) one finds TGI and GI50 data, which are given here for 13 molecules.

On to `CC(C)(c1ccc(C=O)o1)c1ccc(C(C)(C)c2ccc(C=O)o2)o1`, for which the TGI in the experiment with SR leukemia, in the experiment with OVCAR-5 ovarian, in the experiment on HOP-92 NSCLC, in the experiment on A549 NSCLC, with MOLT-4 leukemia and in the experiment with OVCAR-4 ovarian was above 100 µM throughout. This molecule also gave a TGI in the experiment with COLO 205 colon above 100 µM.
As for `COc1cc2c(c3oc4c(O)cccc4c(=O)c13)CC(C(C)(O)CCl)O2` (stereo unspecified), the TGI is 34 µM with OVCAR-5 ovarian; 10.5 µM in the experiment on HOP-92 NSCLC; 13.6 µM in the experiment on A549 NSCLC; above 27.2 µM with HCT-15 colon; 8.18 µM with OVCAR-4 ovarian; 1.85 µM in the experiment with COLO 205 colon.
With `COc1ccccc1NC(=O)c1sc2ncn(CCOc3ccccc3)c(=O)c2c1C`, the GI50 was 0.856 µM in the experiment on SR leukemia; 39.2 µM in the experiment on OVCAR-5 ovarian; above 50 µM in the experiment with HOP-92 NSCLC; 3.36 µM in the experiment with A549 NSCLC; 0.431 µM with HCT-15 colon; 2.88 µM with COLO 205 colon. Moreover, the TGI was 6.87 µM with SR leukemia; above 50 µM in the experiment with OVCAR-5 ovarian; above 50 µM in the experiment with HOP-92 NSCLC; above 50 µM in the experiment on A549 NSCLC; 15.1 µM in the experiment on HCT-15 colon; above 50 µM in the experiment on COLO 205 colon.
Consider `ClC/C=C/CSc1ncnc2nc[nH]c12`, for which the GI50 with SR leukemia, with OVCAR-5 ovarian, with HOP-92 NSCLC, in the experiment on MOLT-4 leukemia, in the experiment with HCT-15 colon and in the experiment with OVCAR-4 ovarian was above 100 µM throughout. In addition, the GI50 in the experiment with COLO 205 colon was above 100 µM. Besides, the TGI in the experiment on SR leukemia, in the experiment with OVCAR-5 ovarian, with HOP-92 NSCLC, in the experiment on MOLT-4 leukemia, with HCT-15 colon and in the experiment with OVCAR-4 ovarian was above 100 µM in each case. The TGI in the experiment with COLO 205 colon is above 100 µM.
For `CC1=C(\C=C/C(C)=C/C=C/C(C)=C/C=C/C=C(C)\C=C\C=C(C)/C=C/C2=C(C)CCCC2(C)C)C(C)(C)CCC1`, the TGI in the experiment on OVCAR-5 ovarian, with MOLT-4 leukemia, in the experiment on HCT-15 colon, in the experiment with OVCAR-4 ovarian and with COLO 205 colon was above 100 µM in each case.
For the molecule `C=C(CN1CCN(c2cc(C(F)(F)F)cc(C(F)(F)F)c2)CC1)c1ccc(C(=O)Nc2ccccc2N)cc1`, the GI50 with OVCAR-5 ovarian is 54.6 µM; in the experiment on HOP-92 NSCLC it was 1.88 µM; in the experiment on A549 NSCLC it was 19 µM; with HCT-15 colon, 3.96 µM; with OVCAR-4 ovarian it was 2.53 µM; in the experiment on COLO 205 colon, 7.11 µM. The TGI is above 100 µM in the experiment with OVCAR-5 ovarian; 7.45 µM with HOP-92 NSCLC; above 100 µM in the experiment on A549 NSCLC; above 100 µM in the experiment on HCT-15 colon; 9.9 µM in the experiment on OVCAR-4 ovarian; 52.6 µM in the experiment with COLO 205 colon.
For the molecule `O=C(NCCN1CCOCC1)c1cc2c(Oc3ccc(NC(=O)C4(C(=O)Nc5ccc(F)cc5)CC4)cc3)ccnc2[nH]1`, the GI50 in the experiment with OVCAR-5 ovarian was 9.94 µM; with HOP-92 NSCLC it was 1.82 µM; in the experiment on A549 NSCLC, 4.9 µM; in the experiment with MOLT-4 leukemia, 3.48 µM; in the experiment with HCT-15 colon it was 12.5 µM; with OVCAR-4 ovarian, 5.13 µM. The GI50 in the experiment with COLO 205 colon is 4.48 µM. For the same molecule, the TGI was above 100 µM in the experiment with OVCAR-5 ovarian; 16.5 µM with HOP-92 NSCLC; 48.6 µM in the experiment on A549 NSCLC; above 100 µM with MOLT-4 leukemia; above 100 µM in the experiment with HCT-15 colon; above 100 µM in the experiment with OVCAR-4 ovarian. In the experiment with COLO 205 colon, this molecule had a TGI above 48.7 µM.
For the molecule `O=C(CC1(O)C(=O)Nc2ccc(Cl)cc21)c1ccc(C(=O)NCC2CCC3(CC2)OOC2(CCCCC2)OO3)cc1` (stereo unspecified), the GI50 in the experiment with OVCAR-5 ovarian is 4.21 µM; in the experiment with HOP-92 NSCLC it was 0.509 µM; in the experiment with MOLT-4 leukemia, 2.05 µM; with HCT-15 colon it was 3.06 µM; in the experiment on OVCAR-4 ovarian, 2.54 µM; in the experiment on COLO 205 colon, 3.09 µM. Moreover, the TGI in the experiment on OVCAR-5 ovarian amounted to 30.9 µM; in the experiment on HOP-92 NSCLC, 2.08 µM; in the experiment on MOLT-4 leukemia, 5.09 µM; in the experiment with HCT-15 colon it was 17.2 µM; in the experiment with OVCAR-4 ovarian, 18.3 µM; in the experiment with COLO 205 colon it was 12.3 µM.
Consider `CCCCCCCCCC(=O)Oc1ccc(/C(=C(/C)c2ccccc2)c2ccc(OCCN3CCCC3)cc2)cc1`, for which the GI50 in the experiment on SR leukemia is 9.08 µM; in the experiment on OVCAR-5 ovarian, 8.56 µM; with HOP-92 NSCLC it was 7.01 µM; in the experiment on A549 NSCLC it was 9.35 µM; in the experiment with MOLT-4 leukemia, 8.61 µM; in the experiment with HCT-15 colon it was 6.69 µM. Moreover, the GI50 with OVCAR-4 ovarian was 7.39 µM. Also, the TGI in the experiment on SR leukemia was 19 µM; with OVCAR-5 ovarian it was 16.5 µM; in the experiment on HOP-92 NSCLC, 15.4 µM; in the experiment with A549 NSCLC, 17.7 µM; in the experiment with MOLT-4 leukemia, 20.3 µM; in the experiment with HCT-15 colon it was 13.1 µM. Further, the TGI with OVCAR-4 ovarian turned out to be 14.9 µM.
Consider `Cc1ccc2nc(CN(CCN(Cc3nc4ccc(C)cc4[nH]3)Cc3nc4ccc(C)cc4[nH]3)Cc3nc4ccc(C)cc4[nH]3)[nH]c2c1`, for which the GI50 in the experiment with SR leukemia is 1.49 µM; in the experiment on OVCAR-5 ovarian, 1.63 µM; in the experiment with HOP-92 NSCLC it was 1.45 µM; in the experiment on A549 NSCLC, 1.86 µM; in the experiment with HCT-15 colon it was 1.62 µM; with COLO 205 colon, 1.7 µM. For the same molecule, the TGI with SR leukemia turned out to be 3.22 µM; in the experiment on OVCAR-5 ovarian, 3 µM; in the experiment with HOP-92 NSCLC, 2.89 µM; with A549 NSCLC, 3.54 µM; in the experiment on HCT-15 colon, 3.01 µM; in the experiment on COLO 205 colon, 3.15 µM.
Regarding `C=C(C)[C@@H]1CC[C@]2(C(=O)O)CC[C@]3(C)[C@H](CC[C@@H]4[C@@]5(C)CCC(N)C(C)(C)[C@@H]5CC[C@]43C)[C@@H]12` (stereo partly specified), in the experiment with OVCAR-4 ovarian, the GI50 is 2.79 µM and the TGI is above 100 µM.
Regarding `COc1cc2c3c(c4ccc(O)cc4c2cc1OC)[C@@H](O)[C@@H]1CCCN1C3`, the TGI in the experiment on SR leukemia amounted to 0.215 µM; with OVCAR-5 ovarian, 0.0454 µM; in the experiment on HOP-92 NSCLC, 0.0191 µM; in the experiment on A549 NSCLC, 0.0026 µM; in the experiment on HCT-15 colon it was 0.204 µM; with OVCAR-4 ovarian, 0.00239 µM. This molecule also had a TGI with COLO 205 colon of 0.145 µM.
On to `O=C(/C=C/c1ccco1)Nc1ncc(Cc2cc(Cl)ccc2Cl)s1`, for which the GI50 with SR leukemia is 0.0385 µM; with OVCAR-5 ovarian, 0.257 µM; with HOP-92 NSCLC it was 6.91 µM; with A549 NSCLC, 0.108 µM; in the experiment with MOLT-4 leukemia, 0.061 µM; in the experiment with HCT-15 colon it was 0.0463 µM. For the same molecule, in the experiment on OVCAR-4 ovarian, the GI50 was 1.03 µM. In addition, the TGI with SR leukemia, in the experiment with OVCAR-5 ovarian, in the experiment on HOP-92 NSCLC, in the experiment on A549 NSCLC, with MOLT-4 leukemia and in the experiment with HCT-15 colon was above 100 µM each time. In the experiment on OVCAR-4 ovarian, this molecule registered a TGI above 100 µM.
